Biological target: hemoglobin (Homo sapiens, UniProt P68871+P69905)
Experiment: Stability of hemoglobin in samples preserved at 37° C. in preservation solution containing no haptoglobin, Hb measured by latex agglutination method (Examples 8, 9 and Table 10)
Procedure: Preservation solutions were prepared with the addition of 40 mmol/L HEPES (pH 6.8), 0.1% BSA, 0.1% NaN3, and 0 to 2.5 mmol/L phenylboronic acid. […] Samples obtained by adding hemoglobin-added fecal specimens to the preservation solutions so that the fecal concentration would be 0.5% were preserved at 37° C. for 0, 16, 38, and 62 hours. The fecal specimens were added with hemoglobin having an amount such that the hemoglobin concentration in the samples would be about 300 μg/L. Instead of the fecal specimens to which hemoglobin was added, samples containing no fecal specimens, in which hemoglobin was added to the preservation solutions so that the hemoglobin concentration in the samples would be 300 μg/L, were similarly preserved. The hemoglobin (Hb) concentrations (μg/L) in the preserved samples were measured by the latex agglutination method using the same measurement reagent and measurement device as in Example 1.
The concentration of phenylboronic acid in the preservation solutions of Example 8 was fixed to 0.5 mmol/L, preservation solutions to which sorbitol or sucrose was further added at 10 to 250 mmol/L or trehalose, glucose, fructose, or mannitol was further added at 50 to 100 mmol/L were prepared, and testing was conducted in the same manner as in Example 8. In addition, preservation solutions to which the phenylboronic acid was added but no sugar was added were prepared, preservation solutions to which the phenylboronic acid and sugar were not added were prepared for the comparative examples, and testing was conducted in the same manner.
For comparative examples, preservation solutions to which no arylboronic acid was added were prepared, and testing was conducted in the same manner.

[1] = Feces 1, 0 h at 37° C., arylboronic acid 0.5 mmol/L, no sugar
[2] = Feces 1, 16 h at 37° C., arylboronic acid 0.5 mmol/L, no sugar
[3] = Feces 1, 38 h at 37° C., arylboronic acid 0.5 mmol/L, no sugar
[4] = Feces 1, 62 h at 37° C., arylboronic acid 0.5 mmol/L, no sugar
[5] = Feces 1, arylboronic acid 0.5 mmol/L, 0 h at 37° C.
[6] = Feces 1, arylboronic acid 0.5 mmol/L, 16 h at 37° C.
[7] = Feces 1, arylboronic acid 0.5 mmol/L, 38 h at 37° C.
[8] = Feces 1, arylboronic acid 0.5 mmol/L, 62 h at 37° C.
[9] = Feces 1, arylboronic acid 1 mmol/L, 0 h at 37° C.
[10] = Feces 1, arylboronic acid 1 mmol/L, 16 h at 37° C.
[11] = Feces 1, arylboronic acid 1 mmol/L, 38 h at 37° C.
[12] = Feces 1, arylboronic acid 1 mmol/L, 62 h at 37° C.
[13] = Feces 2, 0 h at 37° C., arylboronic acid 0.5 mmol/L, no sugar
[14] = Feces 2, 16 h at 37° C., arylboronic acid 0.5 mmol/L, no sugar
[15] = Feces 2, 38 h at 37° C., arylboronic acid 0.5 mmol/L, no sugar
[16] = Feces 2, 62 h at 37° C., arylboronic acid 0.5 mmol/L, no sugar
[17] = Feces 2, arylboronic acid 0.5 mmol/L, 0 h at 37° C.
[18] = Feces 2, arylboronic acid 0.5 mmol/L, 16 h at 37° C.
[19] = Feces 2, arylboronic acid 0.5 mmol/L, 38 h at 37° C.
[20] = Feces 2, arylboronic acid 0.5 mmol/L, 62 h at 37° C.
[21] = Feces 2, arylboronic acid 1 mmol/L, 0 h at 37° C.
[22] = Feces 2, arylboronic acid 1 mmol/L, 16 h at 37° C.
[23] = Feces 2, arylboronic acid 1 mmol/L, 38 h at 37° C.
[24] = Feces 2, arylboronic acid 1 mmol/L, 62 h at 37° C.
[25] = Feces 3, 0 h at 37° C., arylboronic acid 0.5 mmol/L, no sugar
[26] = Feces 3, 16 h at 37° C., arylboronic acid 0.5 mmol/L, no sugar
[27] = Feces 3, 38 h at 37° C., arylboronic acid 0.5 mmol/L, no sugar
[28] = Feces 3, 62 h at 37° C., arylboronic acid 0.5 mmol/L, no sugar
[29] = Feces 3, arylboronic acid 0.5 mmol/L, 0 h at 37° C.
[30] = Feces 3, arylboronic acid 0.5 mmol/L, 16 h at 37° C.
[31] = Feces 3, arylboronic acid 0.5 mmol/L, 38 h at 37° C.
[32] = Feces 3, arylboronic acid 0.5 mmol/L, 62 h at 37° C.
[33] = Feces 3, arylboronic acid 1 mmol/L, 0 h at 37° C.
[34] = Feces 3, arylboronic acid 1 mmol/L, 16 h at 37° C.
[35] = Feces 3, arylboronic acid 1 mmol/L, 38 h at 37° C.
[36] = Feces 3, arylboronic acid 1 mmol/L, 62 h at 37° C.
[37] = No feces, 0 h at 37° C., arylboronic acid 0.5 mmol/L, no sugar
[38] = No feces, 16 h at 37° C., arylboronic acid 0.5 mmol/L, no sugar
[39] = No feces, 38 h at 37° C., arylboronic acid 0.5 mmol/L, no sugar
[40] = No feces, 62 h at 37° C., arylboronic acid 0.5 mmol/L, no sugar
[41] = No feces, arylboronic acid 0.5 mmol/L, 0 h at 37° C.
[42] = No feces, arylboronic acid 0.5 mmol/L, 16 h at 37° C.
[43] = No feces, arylboronic acid 0.5 mmol/L, 38 h at 37° C.
[44] = No feces, arylboronic acid 0.5 mmol/L, 62 h at 37° C.
[45] = No feces, arylboronic acid 1 mmol/L, 0 h at 37° C.
[46] = No feces, arylboronic acid 1 mmol/L, 16 h at 37° C.
[47] = No feces, arylboronic acid 1 mmol/L, 38 h at 37° C.
[48] = No feces, arylboronic acid 1 mmol/L, 62 h at 37° C.

hemoglobin, sequence (P69905 2-142): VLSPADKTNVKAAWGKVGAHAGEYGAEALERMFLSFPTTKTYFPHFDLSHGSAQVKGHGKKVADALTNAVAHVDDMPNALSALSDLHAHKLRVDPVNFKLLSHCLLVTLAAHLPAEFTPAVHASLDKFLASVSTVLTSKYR
hemoglobin, sequence (P68871 2-147): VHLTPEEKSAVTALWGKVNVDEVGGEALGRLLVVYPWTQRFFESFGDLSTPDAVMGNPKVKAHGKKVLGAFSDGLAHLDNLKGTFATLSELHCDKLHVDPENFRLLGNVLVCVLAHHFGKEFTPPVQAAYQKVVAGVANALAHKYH

OB(O)c1ccccc1 [PBA] was tested, and the Hb concentration [1] was 300 µg/L, the “Recovery ratio with respect to Hb after 0 days” value (“Recovery ratio” for short) [1] was 100% and the Hb concentration [2] was 174 µg/L. For the same molecule, the “Recovery ratio” value [2] was 58%, the Hb concentration [3] was 74 µg/L and the “Recovery ratio” value [3] was 25%. The Hb concentration [4] was 17 µg/L, the “Recovery ratio” value [4] was 6% and the Hb concentration [5] was 300 µg/L. The “Recovery ratio” value [5] was 100%, the Hb concentration [6] was 174 µg/L and the “Recovery ratio” value [6] was 58%. The Hb concentration [7] was 74 µg/L, the “Recovery ratio” value [7] was 25% and the Hb concentration [8] was 17 µg/L. The “Recovery ratio” value [8] was 6%, the Hb concentration [9] was 298 µg/L and the “Recovery ratio” value [9] was 100%. The Hb concentration [10] was 182 µg/L, the “Recovery ratio” value [10] was 61% and the Hb concentration [11] was 92 µg/L. For the same molecule, the “Recovery ratio” value [11] was 31%, the Hb concentration [12] was 30 µg/L and the “Recovery ratio” value [12] was 10%. For the same molecule, the Hb concentration [13] was 299 µg/L, the “Recovery ratio” value [13] was 100% and the Hb concentration [14] was 103 µg/L. The “Recovery ratio” value [14] was 34%, the Hb concentration [15] was 10 µg/L and the “Recovery ratio” value [15] was 3%. For the same molecule, the Hb concentration [16] was 0 µg/L, the “Recovery ratio” value [16] was 0% and the Hb concentration [17] was 299 µg/L. The “Recovery ratio” value [17] was 100%, the Hb concentration [18] was 103 µg/L and the “Recovery ratio” value [18] was 34%. The Hb concentration [19] was 10 µg/L, the “Recovery ratio” value [19] was 3% and the Hb concentration [20] was 0 µg/L. For the same molecule, the “Recovery ratio” value [20] was 0%, the Hb concentration [21] was 299 µg/L and the “Recovery ratio” value [21] was 100%. For the same molecule, the Hb concentration [22] was 119 µg/L, the “Recovery ratio” value [22] was 40% and the Hb concentration [23] was 17 µg/L. For the same molecule, the “Recovery ratio” value [23] was 6%, the Hb concentration [24] was 0 µg/L and the “Recovery ratio” value [24] was 0%. For the same molecule, the Hb concentration [25] was 289 µg/L, the “Recovery ratio” value [25] was 100% and the Hb concentration [26] was 92 µg/L. For the same molecule, the “Recovery ratio” value [26] was 32%, the Hb concentration [27] was 8 µg/L and the “Recovery ratio” value [27] was 3%. The Hb concentration [28] was 0 µg/L, the “Recovery ratio” value [28] was 0% and the Hb concentration [29] was 289 µg/L. The “Recovery ratio” value [29] was 100%, the Hb concentration [30] was 92 µg/L and the “Recovery ratio” value [30] was 32%. For the same molecule, the Hb concentration [31] was 8 µg/L, the “Recovery ratio” value [31] was 3% and the Hb concentration [32] was 0 µg/L. For the same molecule, the “Recovery ratio” value [32] was 0%, the Hb concentration [33] was 287 µg/L and the “Recovery ratio” value [33] was 100%. For the same molecule, the Hb concentration [34] was 112 µg/L, the “Recovery ratio” value [34] was 39% and the Hb concentration [35] was 14 µg/L. For the same molecule, the “Recovery ratio” value [35] was 5%, the Hb concentration [36] was 0 µg/L and the “Recovery ratio” value [36] was 0%. For the same molecule, the Hb concentration [37] was 295 µg/L, the “Recovery ratio” value [37] was 100% and the Hb concentration [38] was 284 µg/L. For the same molecule, the “Recovery ratio” value [38] was 96%, the Hb concentration [39] was 270 µg/L and the “Recovery ratio” value [39] was 91%. For the same molecule, the Hb concentration [40] was 263 µg/L, the “Recovery ratio” value [40] was 89% and the Hb concentration [41] was 295 µg/L. The “Recovery ratio” value [41] was 100%, the Hb concentration [42] was 284 µg/L and the “Recovery ratio” value [42] was 96%. The Hb concentration [43] was 270 µg/L, the “Recovery ratio” value [43] was 91% and the Hb concentration [44] was 263 µg/L. The “Recovery ratio” value [44] was 89%, the Hb concentration [45] was 292 µg/L and the “Recovery ratio” value [45] was 100%. For the same molecule, the Hb concentration [46] was 276 µg/L, the “Recovery ratio” value [46] was 95% and the Hb concentration [47] was 261 µg/L. The “Recovery ratio” value [47] was 90%, the Hb concentration [48] was 259 µg/L and the “Recovery ratio” value [48] was 89%.

Source: patent US12215140B2, “Method of stabilizing protein contained in specimen and solution for stabilizing protein contained in specimen” (EIKEN KAGAKU KABUSHIKI KAISHA, priority 2018, dated 2025)
